Earlier results, collected in article PMC2700308 (Biochemistry, 2009).

Test system: a protein
Conditions: calorimetric; ref [33]

- ΔH of binding of sulfate to a protein: 4.3 kcal/mol
Compound: O=S(=O)(O)O [sulfate]
